Measured values reported in ChEMBL document CHEMBL5370599, “Discovery of a 53BP1 Small Molecule Antagonist Using a Focused DNA-Encoded Library Screen” (J Med Chem, 2023).
pIC50, pKd: −log10 of the molar value.

What was measured:
[1] = test system: HEK-293T; assay: Cytotoxicity against HEK293T cells assessed as reduction in cell viability measured upto 200 uM by celltiterglo 2.0 assay; type: toxicity, cell-based; conditions: human
[2] = biological target: T1, TP53-binding protein 1 (Homo sapiens, UniProt Q12888); assay: Binding affinity to N-terminal his6-tagged 53BP1 tandem tudor domain (1484 to 1603 residues) (unknown origin) expressed in Rosetta2 BL21 (DE3) pLysS competent cells assessed as dissociation constant by ITC analysis
T1 sequence (Q12888 whole entry, the tested form may be a part): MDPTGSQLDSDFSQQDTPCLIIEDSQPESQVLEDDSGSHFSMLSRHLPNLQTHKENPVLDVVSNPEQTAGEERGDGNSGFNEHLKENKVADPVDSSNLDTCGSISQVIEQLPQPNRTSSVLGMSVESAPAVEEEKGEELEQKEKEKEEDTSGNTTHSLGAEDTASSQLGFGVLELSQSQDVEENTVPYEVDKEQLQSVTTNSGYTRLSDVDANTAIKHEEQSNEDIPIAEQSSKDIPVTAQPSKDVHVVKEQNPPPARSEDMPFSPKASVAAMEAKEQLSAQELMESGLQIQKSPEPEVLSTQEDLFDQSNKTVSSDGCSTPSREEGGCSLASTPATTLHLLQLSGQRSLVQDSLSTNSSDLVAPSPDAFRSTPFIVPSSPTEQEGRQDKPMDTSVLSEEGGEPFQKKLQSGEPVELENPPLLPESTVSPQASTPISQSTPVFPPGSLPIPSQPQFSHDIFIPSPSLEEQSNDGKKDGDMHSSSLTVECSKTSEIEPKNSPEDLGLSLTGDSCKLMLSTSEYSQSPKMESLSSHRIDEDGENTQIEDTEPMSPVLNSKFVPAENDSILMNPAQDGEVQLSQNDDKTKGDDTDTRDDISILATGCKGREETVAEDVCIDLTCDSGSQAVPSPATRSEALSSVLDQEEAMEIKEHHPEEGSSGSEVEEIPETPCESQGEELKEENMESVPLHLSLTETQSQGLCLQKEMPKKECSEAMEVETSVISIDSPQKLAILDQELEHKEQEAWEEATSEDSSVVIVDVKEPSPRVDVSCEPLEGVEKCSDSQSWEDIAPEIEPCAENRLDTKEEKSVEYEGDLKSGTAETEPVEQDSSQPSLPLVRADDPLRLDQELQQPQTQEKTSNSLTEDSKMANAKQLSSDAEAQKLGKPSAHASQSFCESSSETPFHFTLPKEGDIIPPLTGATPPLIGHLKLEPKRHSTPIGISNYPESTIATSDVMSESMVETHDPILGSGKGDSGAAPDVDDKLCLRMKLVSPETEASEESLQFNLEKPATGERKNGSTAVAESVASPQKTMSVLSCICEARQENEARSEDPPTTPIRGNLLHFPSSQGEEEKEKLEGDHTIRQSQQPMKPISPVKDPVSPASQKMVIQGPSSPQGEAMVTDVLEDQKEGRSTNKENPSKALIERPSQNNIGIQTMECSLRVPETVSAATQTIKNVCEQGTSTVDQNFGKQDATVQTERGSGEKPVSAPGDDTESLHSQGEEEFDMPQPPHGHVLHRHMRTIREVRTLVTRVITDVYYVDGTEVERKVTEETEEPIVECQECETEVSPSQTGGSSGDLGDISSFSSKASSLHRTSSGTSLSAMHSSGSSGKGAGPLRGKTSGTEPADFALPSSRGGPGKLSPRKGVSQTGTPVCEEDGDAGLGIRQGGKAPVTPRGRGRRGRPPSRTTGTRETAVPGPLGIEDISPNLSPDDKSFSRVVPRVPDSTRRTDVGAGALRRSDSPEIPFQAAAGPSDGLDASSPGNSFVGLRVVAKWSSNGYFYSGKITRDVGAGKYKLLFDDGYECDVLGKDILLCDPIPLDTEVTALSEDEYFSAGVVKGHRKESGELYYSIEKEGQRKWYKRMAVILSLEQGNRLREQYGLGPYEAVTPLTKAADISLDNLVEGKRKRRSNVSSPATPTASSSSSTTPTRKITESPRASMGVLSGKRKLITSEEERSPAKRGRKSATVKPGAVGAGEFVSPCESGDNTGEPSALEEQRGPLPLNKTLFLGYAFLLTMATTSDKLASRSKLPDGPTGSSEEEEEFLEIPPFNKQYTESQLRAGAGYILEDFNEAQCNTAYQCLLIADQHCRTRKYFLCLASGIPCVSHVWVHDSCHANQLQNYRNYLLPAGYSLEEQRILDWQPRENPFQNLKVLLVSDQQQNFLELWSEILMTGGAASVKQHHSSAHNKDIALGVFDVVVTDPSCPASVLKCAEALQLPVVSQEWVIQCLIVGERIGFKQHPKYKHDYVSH

[3] = Kinetic solubility of compound by CLND analysis; type: physicochemical
[4] = biological target: T2, Chromobox protein homolog 2 (Homo sapiens, UniProt Q14781); assay: Displacement of Biotin-p53K381acK382me2 from CBX2 chromodomain (unknown origin) by TR-FRET assay
T2 sequence (Q14781 whole entry): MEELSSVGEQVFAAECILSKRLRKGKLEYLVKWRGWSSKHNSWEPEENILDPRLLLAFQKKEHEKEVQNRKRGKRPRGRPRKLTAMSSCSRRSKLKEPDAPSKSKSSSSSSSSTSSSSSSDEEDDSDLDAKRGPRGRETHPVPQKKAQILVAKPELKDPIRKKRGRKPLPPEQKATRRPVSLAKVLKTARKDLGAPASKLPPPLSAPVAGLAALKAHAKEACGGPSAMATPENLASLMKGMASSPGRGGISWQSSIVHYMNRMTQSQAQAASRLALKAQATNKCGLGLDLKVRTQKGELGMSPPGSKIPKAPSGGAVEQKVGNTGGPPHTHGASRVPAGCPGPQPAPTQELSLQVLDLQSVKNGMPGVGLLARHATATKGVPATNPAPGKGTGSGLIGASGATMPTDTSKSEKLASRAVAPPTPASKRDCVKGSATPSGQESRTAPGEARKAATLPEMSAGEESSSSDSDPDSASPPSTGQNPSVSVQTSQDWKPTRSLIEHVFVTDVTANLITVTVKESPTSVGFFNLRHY

[5] = test system: TERT-RPE1; assay: Cytotoxicity against human RPE-1 cells assessed as reduction in cell viability measured upto 200 uM by celltiterglo 2.0 assay; type: toxicity, cell-based; conditions: tert-rpe1, 200 µM
[6] = biological target: T1, TP53-binding protein 1; assay: Binding affinity to N-terminal his6-tagged 53BP1 (1484 to 1603 residues) (unknown origin) expressed in Rosetta2 BL21 (DE3) pLysS competent cells assessed as dissociation constant by SPR analysis
[7] = biological target: T1, TP53-binding protein 1; conditions: filed as antagonist
Description: Binding affinity to N-terminal his6-tagged 53BP1 tandem tudor domain (1484 to 1603 residues) (unknown origin) expressed in Rosetta2 BL21 (DE3) pLysS competent cells assessed as change in enthalpy by differential scanning fluorimetry analysis

[8] = biological target: T1, TP53-binding protein 1; assay: Antagonist activity at nanoluc-tagged 53BP1 tandem tudor domain (unknown origin) transfected in HEK293T cells assessed as inhibition of 53BP1-H4 peptide interaction by nanoBRET assay; type: cell-based
[9] = biological target: T3, M-phase phosphoprotein 8 (Homo sapiens, UniProt Q99549); assay: Displacement of Biotin-p53K381acK382me2 from MPP8 chromodomain (unknown origin) by TR-FRET assay
T3 sequence (Q99549 whole entry): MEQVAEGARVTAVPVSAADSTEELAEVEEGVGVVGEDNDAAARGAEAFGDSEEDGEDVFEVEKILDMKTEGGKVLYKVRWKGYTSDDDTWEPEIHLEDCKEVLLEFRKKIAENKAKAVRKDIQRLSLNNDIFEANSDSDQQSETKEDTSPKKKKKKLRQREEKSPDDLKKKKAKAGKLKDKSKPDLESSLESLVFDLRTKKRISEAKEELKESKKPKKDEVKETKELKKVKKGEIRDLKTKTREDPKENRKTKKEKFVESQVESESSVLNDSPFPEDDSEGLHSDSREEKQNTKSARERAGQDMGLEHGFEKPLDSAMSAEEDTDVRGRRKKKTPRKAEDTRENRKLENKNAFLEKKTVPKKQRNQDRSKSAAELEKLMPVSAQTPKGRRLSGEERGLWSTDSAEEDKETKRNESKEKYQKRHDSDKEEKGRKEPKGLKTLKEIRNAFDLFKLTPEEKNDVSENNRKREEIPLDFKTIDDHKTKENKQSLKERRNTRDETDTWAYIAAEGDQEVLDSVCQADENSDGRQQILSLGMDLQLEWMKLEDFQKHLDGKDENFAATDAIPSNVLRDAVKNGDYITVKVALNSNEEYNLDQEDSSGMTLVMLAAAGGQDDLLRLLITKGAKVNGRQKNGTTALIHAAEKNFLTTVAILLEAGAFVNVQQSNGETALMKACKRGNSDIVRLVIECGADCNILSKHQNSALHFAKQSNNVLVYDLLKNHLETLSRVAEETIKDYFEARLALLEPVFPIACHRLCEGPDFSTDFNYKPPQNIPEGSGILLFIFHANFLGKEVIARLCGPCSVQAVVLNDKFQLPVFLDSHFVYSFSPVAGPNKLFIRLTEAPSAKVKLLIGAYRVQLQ

[10] = biological target: Histone-lysine N-methyltransferase SETDB1 (Homo sapiens, UniProt Q15047); assay: Displacement of Biotin-p53K381acK382me2 from SETDB1 tandem tudor domain (unknown origin) by TR-FRET assay
[11] = biological target: PHD finger protein 19 (Homo sapiens, UniProt Q5T6S3); assay: Displacement of Biotin-p53K381acK382me2 from PHF19 (unknown origin) by TR-FRET assay
[12] = biological target: T4, Chromodomain Y-like protein 2 (Homo sapiens, UniProt Q8N8U2); assay: Displacement of Biotin-p53K381acK382me2 from CDYL2 (unknown origin) by TR-FRET assay
T4 sequence (Q8N8U2 whole entry): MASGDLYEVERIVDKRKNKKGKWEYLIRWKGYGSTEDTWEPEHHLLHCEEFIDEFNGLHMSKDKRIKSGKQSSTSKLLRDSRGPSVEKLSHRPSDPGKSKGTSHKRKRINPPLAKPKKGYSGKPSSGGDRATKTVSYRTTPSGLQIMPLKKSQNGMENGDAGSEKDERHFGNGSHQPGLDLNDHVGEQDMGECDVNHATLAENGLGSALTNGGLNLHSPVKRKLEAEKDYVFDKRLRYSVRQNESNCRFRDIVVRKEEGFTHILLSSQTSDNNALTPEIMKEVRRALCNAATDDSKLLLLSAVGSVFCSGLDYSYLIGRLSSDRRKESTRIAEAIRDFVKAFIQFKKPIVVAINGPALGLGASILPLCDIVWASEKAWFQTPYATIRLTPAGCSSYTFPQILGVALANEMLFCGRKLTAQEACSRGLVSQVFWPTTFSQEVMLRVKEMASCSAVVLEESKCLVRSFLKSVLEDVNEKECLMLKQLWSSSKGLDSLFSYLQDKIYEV

[13] = biological target: T5, E3 ubiquitin-protein ligase UHRF1 (Homo sapiens, UniProt Q96T88); assay: Displacement of Biotin-p53K381acK382me2 from UHRF1 tandem tudor domain (unknown origin) by TR-FRET assay
T5 sequence (Q96T88 whole entry): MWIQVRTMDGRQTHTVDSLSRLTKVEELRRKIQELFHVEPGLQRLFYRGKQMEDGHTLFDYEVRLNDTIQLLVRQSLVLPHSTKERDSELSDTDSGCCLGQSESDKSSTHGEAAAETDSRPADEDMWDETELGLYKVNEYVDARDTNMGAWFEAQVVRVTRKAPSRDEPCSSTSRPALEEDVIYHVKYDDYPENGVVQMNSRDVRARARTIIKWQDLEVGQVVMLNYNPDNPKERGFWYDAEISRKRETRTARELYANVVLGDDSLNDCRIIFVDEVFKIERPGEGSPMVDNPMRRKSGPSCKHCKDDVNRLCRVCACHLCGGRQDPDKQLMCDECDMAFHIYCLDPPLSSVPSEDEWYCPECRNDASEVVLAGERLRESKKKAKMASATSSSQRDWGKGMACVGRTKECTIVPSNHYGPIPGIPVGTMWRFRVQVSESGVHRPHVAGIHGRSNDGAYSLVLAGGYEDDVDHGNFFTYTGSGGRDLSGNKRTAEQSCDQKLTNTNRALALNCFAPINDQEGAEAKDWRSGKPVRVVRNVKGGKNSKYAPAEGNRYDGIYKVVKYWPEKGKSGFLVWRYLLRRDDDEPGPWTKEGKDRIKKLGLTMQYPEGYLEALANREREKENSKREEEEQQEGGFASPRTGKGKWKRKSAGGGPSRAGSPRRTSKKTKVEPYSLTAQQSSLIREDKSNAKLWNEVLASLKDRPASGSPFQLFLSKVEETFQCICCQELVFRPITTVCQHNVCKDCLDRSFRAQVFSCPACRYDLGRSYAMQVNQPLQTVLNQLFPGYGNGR

[14] = biological target: T1, TP53-binding protein 1; assay: Displacement of Biotin-p53K381acK382me2 from N-terminal his6-tagged 53BP1 (1484 to 1603 residues) (unknown origin) expressed in Rosetta2 BL21 (DE3) pLysS competent cells by TR-FRET assay; type: single protein
[15] = Displacement of Biotin-p53K381acK382me2 from KDM7B (unknown origin) by TR-FRET assay; design: species or system Homo sapiens
[16] = test system: HEK-293T; assay: Cytotoxicity against HEK293T cells assessed as reduction in cell viability by celltiterglo 2.0 assay; type: toxicity, cell-based; conditions: human
[17] = test system: TERT-RPE1; assay: Cytotoxicity against human RPE-1 cells assessed as reduction in cell viability by celltiterglo 2.0 assay; type: toxicity, cell-based

SMILES | Activity [1] | pKd [2] | Kinetic_solubility [3] [µM] | pIC50 [4] | Activity [5] | pKd [6] | deltaH [7] [kcal/mol] | pIC50 [8] | pIC50 [9] | pIC50 [10] | pIC50 [11] | pIC50 [12] | pIC50 [13] | pIC50 [14] | pIC50 [15] | Activity [16] | Activity [17]
CN1CCN(c2ccnc(C(=O)N3CCC[C@H](C(=O)Nc4cccc(-c5ccc6c(c5)C(=O)NC6)c4)C3)c2)CC1 | Non-Toxic | 6.39 | 200 | < 4.00 | Non-Toxic | 6.77 | -5.8 | 5.16 | < 4.00 | < 4.00 | < 4.00 | < 4.00 | < 4.00 | 6.34 | < 4.00 |  | 
O=C1NCc2ccc(-c3cccc(NC(=O)[C@H]4CCCN(C(=O)c5cc(N6CCCCC6)ccn5)C4)c3)cc21 |  |  |  |  |  |  |  |  |  |  |  |  |  |  |  | Toxic | Toxic
CN1CCN(c2ccnc(C(=O)N3CCC[C@H](C(=O)Nc4cccc(-c5ccc(C(N)=O)cc5)c4)C3)c2)CC1 | Non-Toxic | 6.07 | 194 | < 4.00 | Non-Toxic | 6.10 | -9.2 | 5.07 | < 4.00 | < 4.00 | < 4.00 | < 4.00 | < 4.00 | 6.33 | < 4.00 |  | 
